Experimental data as given in patent US20150105252A1, “SUBSTITUTED PYRAZOLES AS HERBICIDES” (E I DU PONT DE NEMOURS AND COMPANY, priority 2013, published 2015).

Legend:
[1] = system: crabgrass, large; test: Test A preemergence; format: in vivo, Digitaria sanguinalis; settings: 0 to 100 scale
Method in brief: (§1)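 Injury readout: eye-scored versus untreated controls, 0 to 100. Exposure period: ~10 days, greenhouse. Application: soil-directed spray over sown seed (pre) or spray on seedlings 2–10 cm tall with one or two leaves (post), compound carried in non-phytotoxic solvent including surfactant.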

[2] = system: barnyardgrass; test: Test A preemergence; format: in vivo, Echinochloa crus-galli
Method in brief: as §1

[3] = system: pigweed; test: Test A postemergence; format: in vivo, Amaranthus retroflexus
Method in brief: as §1

[4] = system: wheat; test: Test A postemergence; format: in vivo, Triticum aestivum
Method in brief: as §1

[5] = system: velvetleaf; test: Test C preemergence; format: in vivo, Abutilon theophrasti; settings: for Plant response rating (scale of 0 to 100), Velvetleaf: Preemergence, 250 g ai/ha
Method in brief: (§2)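 Herbicidal effect is expressed as percent visual control (0–100) judged against untreated plants 13 to 15 days after treatment in the greenhouse. Preemergence pots contained seeds in a soil–sand blend; postemergence plants, 2–18 cm tall, grew in peat-based planting medium.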

[6] = system: ragweed; test: Test C preemergence; format: in vivo, Ambrosia elation; settings: for Plant response rating (scale of 0 to 100), Ragweed: Preemergence, 250 g ai/ha
From the text: (§3) Seeds of plant species selected from blackgrass (Alopecurus myosuroides), ryegrass, Italian (Italian ryegrass, Lolium multiflorum), wheat (winter wheat, Triticum aestivum), galium (catchweed bedstraw, Galium aparine), corn (Zea mays), crabgrass, large (large crabgrass, Digitaria sanguinalis), foxtail, giant (giant foxtail, Setaria faberii), johnsongrass (Sorghum halepense), lambsquarters (Chenopodium album), morningglory (Ipomoea coccinea), nutsedge, yellow (yellow nutsedge, Cyperus esculentus), pigweed (redroot pigweed, Amaranthus retroflexus), ragweed (common ragweed, Ambrosia elation), soybean (Glycine max), barnyardgrass (Echinochloa crus-galli), oilseed rape (Brassica napus), waterhemp (common waterhemp, Amaranthus rudis), oat, wild (wild oat, Avena fatua), kochia (Kochia scoparia), Surinam grass (Brachiaria decumbens), foxtail, green (green foxtail, Setaria viridis), goosegrass (Eleusine indica), bromegrass, downy (downy bromegrass, Bromus tectorum), nightshade (eastern black nightshade, Solanum ptycanthum), cocklebur (common cocklebur, Xanthium strumarium), cupgrass, woolly (woolly cupgrass, Eriochloa villosa), bermudagrass (Cynodon dactylon), sunflower, (common oilseed sunflower, Helianthus annuus), Russian thistle (Salsola kali), and velvetleaf (Abutilon theophrasti) were planted into a blend of loam soil and sand and treated preemergence with test chemicals formulated in a non-phytotoxic solvent mixture which included a surfactant.
(§4) At the same time, plants selected from these crop and weed species and also chickweed (common chickweed, Stellaria media), canarygrass (littleseed canarygrass, Phalaris minor), and deadnettle (henbit deadnettle, Lamium amplexicaule), were planted in pots containing Redi-Earth® planting medium (Scotts Company, 14111 Scottslawn Road, Marysville, Ohio 43041) comprising spaghnum peat moss, vermiculite, wetting agent and starter nutrients and treated with postemergence applications of test chemicals formulated in the same manner. Plants ranged in height from 2 to 18 cm (1- to 4-leaf stage) for postemergence treatments. Treated plants and controls were maintained in a greenhouse for 13 to 15 days, after which time all species were compared to controls and visually evaluated. Plant response ratings, summarized in Table C, are based on a scale of 0 to 100 where 0 is no effect and 100 is complete control. A dash (-) response means no test result.

[7] = system: barnyardgrass; test: Test C preemergence; format: in vivo, Echinochloa crus-galli; settings: for Plant response rating (scale of 0 to 100), Barnyardgrass: Preemergence, 250 g ai/ha
Method in brief: as §2

[8] = system: corn; test: Test A preemergence; format: in vivo, Zea mays; settings: 0 to 100 scale
Method in brief: as §1

[9] = system: wheat; test: Test A preemergence; format: in vivo, Triticum aestivum; settings: preemergence
Method in brief: as §1

[10] = system: velvetleaf; test: Test A preemergence; format: in vivo, Abutilon theophrasti; settings: 0 to 100 scale
Method in brief: as §1

[11] = system: foxtail, giant; test: Test C preemergence; format: in vivo, Setaria faberii; settings: for Plant response rating (scale of 0 to 100), Foxtail, Giant: Preemergence, 250 g ai/ha
Method in brief: as §2

[12] = system: crabgrass, large; test: Test A postemergence; format: in vivo, Digitaria sanguinalis
Method in brief: as §1

[13] = system: johnsongrass; test: Test C preemergence; format: in vivo, Sorghum halepense; settings: for Plant response rating (scale of 0 to 100), Johnsongrass: Preemergence, 250 g ai/ha
From the text: as §3, §4

[14] = system: corn; test: Test C preemergence; format: in vivo, Zea mays; settings: for Plant response rating (scale of 0 to 100), Corn: Preemergence, 250 g ai/ha
Method in brief: as §2

[15] = system: blackgrass; test: Test C preemergence; format: in vivo, Alopecurus myosuroides; settings: for Blackgrass plant response rating: preemergence
Method in brief: as §2

[16] = system: oilseed rape; test: Test C preemergence; format: in vivo, Brassica napus; settings: for Oilseed Rape plant response rating: preemergence
Method in brief: as §2

[17] = system: wheat; test: Test C preemergence; format: in vivo, Triticum aestivum; settings: for Wheat plant response rating: preemergence
From the text: as §3, §4

[18] = Preemergence, 500 g ai/ha, 0 no effect, 100 complete control
[19] = preemergence, 125 g ai/ha, visual injury, approx. 10 days
[20] = preemergence, 125 g ai/ha, visual injury, 0 to 100 scale, approx. 10 days
[21] = Postemergence, 500 g ai/ha, visual rating after approx. 10 days, 0 to 100 scale (0 no effect, 100 complete control)
[22] = postemergence, 125 g ai/ha, about 10 days, visual rating on 0 to 100 scale (0 no effect, 100 complete control)
[23] = preemergence, 31 g ai/ha, visual rating, scale 0 to 100 (0 no effect, 100 complete control), 13 to 15 days
[24] = preemergence, 62 g ai/ha, 13 to 15 days, scale 0 to 100, 0 = no effect, 100 = complete control
[25] = preemergence, 125 g ai/ha, scale 0 to 100, 0 is no effect, 100 is complete control
[26] = preemergence, 31 g ai/ha, scale 0 to 100 (0 no effect, 100 complete control), 13 to 15 days
[27] = 31 g ai/ha, visual rating, scale 0 to 100 (0 no effect, 100 complete control), 13 to 15 days
[28] = 62 g ai/ha, scale 0 to 100 (0 no effect, 100 complete control), 13 to 15 days
[29] = 125 g ai/ha, scale 0 to 100, 0 is no effect, 100 is complete control
[30] = Postemergence, 500 g ai/ha, 0 to 100 scale (0 no effect, 100 complete control)
[31] = preemergence, 62 g ai/ha, scale 0 to 100 (0 no effect, 100 complete control), 13 to 15 days

CCc1cc(C(=O)NCC(F)(F)F)nn1Cc1ccnc(C(F)(F)F)c1 [Compound 78, 5-ethyl-N-(2,2,2-trifluoroethyl)-1-[[(2-trifluoromethyl)-4-pyridinyl]methyl]-1H-pyrazole-3-carboxamide]
60: Corn plant response rating [8, 19] | Corn plant response rating [14, 23]
85: Johnsongrass plant response rating [13, 23]
100: Crabgrass, Large plant response rating [1, 18] | Crabgrass, Large plant response rating [1, 19] | Barnyardgrass plant response rating ([2]; Preemergence, 500 g ai/ha, 0 to 100 scale, 0 no effect, 100 complete control) | Barnyardgrass plant response rating [2, 20] | Pigweed plant response rating [3, 21] | Pigweed plant response rating [3, 22] | Plant response rating (scale of 0 to 100), Velvetleaf [5] | Plant response rating, Velvetleaf [5, 24] | Velvetleaf plant response rating [5, 25] | Plant response rating (scale of 0 to 100), Ragweed [6] | Plant response rating (scale of 0 to 100), Barnyardgrass [7] | Barnyardgrass plant response rating [7, 26] | Plant response rating, Barnyardgrass [7, 24] | Barnyardgrass plant response rating [7, 25] | Wheat plant response rating ([9]; 500 g ai/ha, visual injury after approx. 10 days, 0 to 100 scale (0 no effect, 100 complete control)) | Velvetleaf plant response rating [10, 18] | Velvetleaf plant response rating [10, 19] | Plant response rating (scale of 0 to 100), Foxtail, Giant [11] | Crabgrass, Large plant response rating [12, 21] | Plant response rating (scale of 0 to 100), Johnsongrass [13] | Johnsongrass plant response rating [13, 25]
70: Wheat plant response rating [4, 22] | Corn plant response rating [8, 18]
50: Wheat plant response rating ([9]; 125 g ai/ha, visual injury, 0 to 100 scale, approx. 10 days)
80: Wheat plant response rating [4, 21] | Velvetleaf plant response rating [5, 23] | Ragweed plant response rating [6, 23]
98: Plant response rating, Ragweed [6, 24] | Ragweed plant response rating [6, 25] | Plant response rating, Foxtail, Giant [11, 24] | Foxtail, Giant plant response rating [11, 25] | Plant response rating (scale of 0 to 100), Corn [14]
65: Plant response rating, Corn [14, 24]
90: Foxtail, Giant plant response rating [11, 23] | Crabgrass, Large plant response rating [12, 22]
95: Plant response rating, Johnsongrass [13, 24] | Corn plant response rating [14, 25]

CCONC(=O)c1cc(CC)n(Cc2cc(C(F)(F)F)no2)n1 [Compound 125]
40: Plant response rating (scale of 0 to 100), Velvetleaf [5]
45: Plant response rating (scale of 0 to 100), Corn [14]
100: Barnyardgrass plant response rating ([2]; preemergence, 500 g ai/ha, visual injury after approx. 10 days, 0 to 100 scale (0 no effect, 100 complete control)) | Pigweed plant response rating [3, 30] | Plant response rating (scale of 0 to 100), Barnyardgrass [7]
35: Foxtail, Giant plant response rating [11, 31]
50: Barnyardgrass plant response rating [7, 31] | Plant response rating (scale of 0 to 100), Wheat ([17]; Preemergence, 250 g ai/ha)
90: Plant response rating (scale of 0 to 100), Foxtail, Giant [11] | Foxtail, Giant plant response rating [11, 25]
60: Blackgrass plant response rating [15, 29] | Wheat plant response rating [4, 30] | Oilseed Rape plant response rating [16, 28]
5: Ragweed plant response rating [6, 23] | Barnyardgrass plant response rating [7, 26] | Wheat plant response rating [17, 29] | Johnsongrass plant response rating [13, 25] | Corn plant response rating [14, 31]
55: Ragweed plant response rating [6, 25]
30: Velvetleaf plant response rating [5, 25] | Oilseed Rape plant response rating [16, 27]
10: Blackgrass plant response rating [15, 28] | Ragweed plant response rating [6, 31] | Plant response rating (scale of 0 to 100), Johnsongrass [13] | Corn plant response rating [14, 25]
70: Pigweed plant response rating [3, 22]
80: Barnyardgrass plant response rating [2, 20] | Plant response rating (scale of 0 to 100), Blackgrass ([15]; Preemergence, 250 g ai/ha) | Barnyardgrass plant response rating [7, 25]
0: Blackgrass plant response rating [15, 27] | Wheat plant response rating [4, 22] | Wheat plant response rating [17, 27] | Wheat plant response rating [17, 28] | Johnsongrass plant response rating [13, 23] | Johnsongrass plant response rating [13, 31] | Corn plant response rating [14, 23]
20: Velvetleaf plant response rating [5, 23] | Velvetleaf plant response rating [5, 31] | Foxtail, Giant plant response rating [11, 23]
95: Plant response rating (scale of 0 to 100), Oilseed Rape ([16]; Preemergence, 250 g ai/ha) | Oilseed Rape plant response rating [16, 29]
75: Plant response rating (scale of 0 to 100), Ragweed [6]
